# Source: a melting point compilation (Tetko et al.; mined from patent text by program, amines drawn as free bases though some values may be those of a salt)
# Residues, ends and D or L forms follow the SMILES beside them. *: point of attachment. Cbz = O=C(OCc1ccccc1)*
row,Compound,melting point [°C]
1,O=C(O)CCCC1Cc2ccc(Cl)cc2C1=O (centres undefined),141 to 142
2,O=c1oc2ccccc2c(O)c1C1CC(c2ccc(-c3ccc(OCc4ccc(Br)cc4)cc3)cc2)Cc2ccccc21 (centres undefined),240
3,O=C(O)COc1c(Br)cc(-c2c3ccccc3c(Br)c3sc4ccccc4c23)cc1Br,259 to 261
4,C#CC1(O)C=CC2C3CCC4=CC(=O)CC(OC(C)=O)C4C3CCC21CC (centres undefined),123 to 126
5,CSc1nn(Cc2cccc(C(F)(F)F)c2)c(N)c1C#N,142
6,Cc1c(OCC(F)(F)C(F)(F)F)ccnc1CSc1nc2ccccc2[nH]1,145 to 146
7,Oc1c(F)cc(Cn2c(S)nc3ccccc32)cc1F,200
8,CN1CCc2c(C3=CC(=O)CCC3)c(F)cc3c(=O)c(C(=O)O)cn1c23,> 300
9,COc1ccc(C2(c3ccc(OC)cc3)CCN(CC[C@@H]3C=C4c5cccc6[nH]cc(c56)C[C@H]4N(C)C3)CC2)cc1,184 to 187
10,O=C1CC2(CCCCC2Cc2ccccc2)S(=O)(=O)CCN1 (centres undefined),130 to 135
11,N#CC(=Cc1cc(O)c(O)c(C#N)c1)C(=O)Nc1cccc(Cl)c1,236 to 240
12,CS(=O)(=O)c1ccc(-n2cccc2-c2ccc(F)cc2)cc1,195 to 196
13,CC(C)(C)OC(=O)NCc1cc(C(C)(C)C)cc(I)c1O,196 to 197
14,CC(C)N1OCCC(C(O)c2cc(C(C)(C)C)c(O)c(C(C)(C)C)c2)C1=O (centres undefined),150 to 153
15,COc1ccccc1Oc1c(NS(=O)(=O)c2cc(Cl)sc2Cl)nc(-c2ncccn2)nc1OCCOC(=O)Nc1ccccn1,194 to 197
16,CC(C)CCCCCCCC=CC1CC(=O)N(NC(=O)CCc2cc(C(C)(C)C)c(O)c(C(C)(C)C)c2)C1=O (centres undefined),62 to 68
17,COc1ccc(Nc2ccc(Nc3ncnc4cc(-c5ccccc5[N+](=O)[O-])sc34)cc2)cc1,228 to 237
18,CCn1cc(C(=O)O)c(=O)c2cc(F)c(Cl)nc21,265 to 267
19,CC(C)(C)c1cc(OCCCCc2nnn[nH]2)cc(C(C)(C)C)c1O,141 to 142
20,CCCn1nnn(-c2cc(OCC#CI)c(Cl)cc2Cl)c1=O,134 to 138
21,COc1cc(OC)cc(-c2nc[nH]c2-c2ccc(OC)c(N)c2O)c1,132 to 134
22,Cc1cc(-n2ccnc2)c2cccc(OCc3c(Cl)ccc(S(=O)(=O)N4CCC[C@H]4C(=O)N(C)CCCN(C)CCCO)c3Cl)c2n1,92

row,Compound,melting point [°C]
1,O=S(=O)(N[C@H]1CC[C@H](CCN2CCN(c3nccc4c3CCO4)CC2)CC1)c1ccccc1,168
2,Cc1ccc2c(=O)cc(C#N)oc2c1,155 to 156
3,CCN(CC)c1ccc(-n2c(CC(=O)O)c(C(=O)O)c3cc(Oc4ccc(C(F)(F)F)cc4)ccc32)cc1,234 to 236
4,CCOC(=O)C1C=Nc2c(cc(F)cc2[N+](=O)[O-])C1=O (centres undefined),278 to 280
5,CCOC(=O)CC1CCCc2cc(C#N)ccc21 (centres undefined),45 to 47
6,CCc1ccc(Nc2c(-c3nnc(CC)o3)ccc(F)c2F)c(F)c1,82 to 83
7,CCOC(=O)c1ccc(-c2ccc(OCCO)c(-c3ccc(N(CC)CC)c(C(C)(C)C)c3)c2)cc1,127
8,COC(=O)c1cc(F)c([N+](=O)[O-])cc1NC(C)=O,124 to 126
9,CCOCc1nc2c(N)nc(C)c(C)c2n1CCOCC#Cc1cncnc1,122 to 124
10,COc1ccc(S(=O)(=O)N2CCc3cccc(-c4ccc(C=CC(=O)NO)cc4)c32)cc1,200 to 201
11,CC1Cc2cc(Br)cc(S(N)(=O)=O)c2O1 (centres undefined),167 to 169
12,COCCOc1ccc(/C=C/C2(O)CN3CCC2CC3)cc1 (centres undefined),164 to 166
13,O=C1N(Cc2nc3cc(F)ccc3[nH]2)c2ccccc2C12COc1cc3c(cc12)OCO3 (centres undefined),138 to 142
14,COc1ccc(-c2nnc3c4ccccc4c(Nc4ccc(-c5nn[nH]n5)cc4)nn23)cc1,281 to 284
15,CCOC(=O)c1c(C(F)(F)F)nc(C(F)(F)F)c(C(=O)OC)c1N1CCCC1,68.5 to 70
16,COc1cc(Nc2c(C#N)cnc3cc(-c4ccc(CCN5CCOCC5)cc4)c(OC)cc23)c(Cl)cc1Cl,215 to 217
17,COc1cc(N)c2nccc(C)c2c1F,126 to 128
18,COc1cc(N(C)C)nc(N2CCN(Cc3ccc(CNC(C)=O)cc3)CC2)n1,115 to 118
19,Cc1cccc(-c2nc3c(C)cccc3[nH]2)c1[N+](=O)[O-],186 to 188
20,COC(=O)c1ccc(S(C)(=O)=O)c(C2=NOC(C)C2)c1Cl (centres undefined),130 to 135
21,CC1CCC(=O)N1CC(=O)NCCN(C(C)C)C(C)C (centres undefined),73 to 74
22,CN(CC(=O)OC(C)(C)C)c1cncc(-c2nc(=O)c3ccccc3s2)n1,189 to 190

row,Compound,melting point [°C]
1,C#CCN1CCCNC1=C[N+](=O)[O-],157 to 158
2,COc1ccc(CC(=O)O)c(C)c1OC,102 to 104
3,CSc1nc(OCCN2CCCC2=O)c(C#N)c(N2CCc3ccccc3CC2)n1,126 to 128
4,COc1ccc(N2CCN(c3c(C)c(C)c4c(c3C)CC(C)(CN3CCC5(CC3)OCCO5)O4)CC2)cc1 (centres undefined),165 to 167
5,CCN1C(=O)C(C(=O)Nc2ccc(Cl)cc2Oc2ccc(Cl)cc2)C(=O)N(C)C1=S (centres undefined),250 to 251
6,COCC1(OP(=O)(O)O)CCN(c2c(F)cc(N3C[C@H](CNC(C)=O)OC3=O)cc2F)CC1,> 140
7,O=c1[nH]c(-c2ccc(F)cc2)c(CCCl)s1,138
8,COc1ccc(C(CN)C2CCCCC2O)cc1 (mixture of isomers),79 to 81
9,COC(=O)c1ccc(C(F)(F)F)cc1NC(C)=O,86 to 87
10,O=c1cc(Oc2c(Cl)cccc2Cl)c2cc(OC(F)F)ccc2o1,145 to 148
11,COc1cccc2c1C(=O)c1c(OC)cc(-c3nnn[nH]3)cc1C2=O,262 to 264
12,CCOc1ccc(-c2nc(-c3cc4c(c(C(=O)O)c3)OC(C)(C)C4)cs2)cc1OCC,106 to 107
13,Cc1c(NC(=O)c2ccc(-c3ccc(Cl)s3)cc2F)ccc2cc(CN3CCCCC3)cnc12,205 to 206
14,CCC1CC(=O)N(Cc2ccc(N)cc2)N=C1c1ccc(OC)c(OC)c1 (centres undefined),49
15,O=c1nc(NCc2ccc(Cl)cc2)n2c3c1cnn3C(c1cccc(C(F)(F)F)c1)=CC2,281 to 282
16,O=c1c(Br)c(OCc2ccccc2C(F)(F)F)ccn1Cc1ccccc1,133 to 134
17,CCOC(=O)c1ncc2[nH]c3ccc(C4=CC(=O)CCC4)cc3c2c1C,245 to 248
18,CCCC12CCC(=O)C=C1c1c(cc(OCC(=O)OCC)c(Cl)c1Cl)C2OC(C)=O (centres undefined),128 to 130
19,CCCC1=NN(c2ccc(S(=O)(=O)NC(C)(C)C)cc2)C(=O)C1=CNc1ccccc1OCC,254
20,CC(C)NCC(O)COc1ccc2nc3[nH]c(=O)[nH]c3cc2c1 (centres undefined),262 to 264
21,COC(=O)CN(C)c1cc(-c2ccc(Cl)cc2)on1,141

# Further lines, results first:
row,melting point [°C],Compound
1,193 to 194,O=C(N[C@H](Cc1ccccc1C(F)(F)F)[C@@H](O)c1ccc(F)cc1)c1cccc2ccccc12 (racemic)
2,262,NS(=O)(=O)c1cccc(NC(=O)c2cnn3c(C(F)F)cc(-c4ccc(C(F)(F)F)c(F)c4)nc23)c1
3,205 to 206,N#Cc1ccc(S(=O)(=O)N2CCn3c(c(C(N)=O)c(Cl)c3-c3ccccc3)C2)cc1
4,204 to 208,Cc1cccc(CC2CCN(C(=O)C(=O)Nc3ccc4[nH]c(=O)oc4c3)CC2)c1
5,193 to 195,O=C1COC(c2ccccc2)c2ccccc2N1 (centres undefined)
6,175,CN1CCN(C(=O)COC2c3ccccc3C(=O)N2c2ccc3ccc(Cl)nc3n2)CC1 (centres undefined)
7,180 to 183,COC(=O)C(Cc1ccccc1)NC(=O)C(CC(N)=O)NC(=O)C(CO)NC(=O)OCc1ccccc1 (stereo not drawn) (Cbz-Ser-Asn-Phe-OMe; configuration not given here)
8,173,O=S(=O)(Cc1ccc(Br)cc1)c1nc(-c2ccncc2)ns1
9,205,Nc1nccc(Oc2ccc3c(C(=O)O)cccc3c2)n1
10,157 to 158,O=C(O)CCC(=O)c1ccc2sc3ccccc3c2c1
11,192,O=C(O)C(=NOCc1cccnc1)c1csc(NC(c2ccccc2)(c2ccccc2)c2ccccc2)n1
12,100 to 101,CCOC(=O)Cc1ccc2cc(Br)ccc2n1
13,151 to 152,O=C1NC(=O)C(CCCc2ccc3oc(Cc4ccc5ccccc5c4)nc3c2)O1 (centres undefined)
14,163,O=C(Nc1ccccc1)O[C@@H]1CN=C(c2ccc3ccccc3c2)O[C@H]1c1ccccc1 (racemic)
15,112,COC(=O)c1ccc(OCC(C)NCC(O)c2cccc(Cl)c2)c(C(=O)OC)c1 (centres undefined)
16,275 to 276,Cc1cc(=O)[nH]c2cc(OCCCN3CCC(NC(=O)c4ccccc4)CC3)ccc12
17,83 to 85,CCCC(O)C1(CCC)c2ccccc2-c2ccccc21 (centres undefined)
18,142 to 144,COC(=O)Nc1ccc(OCc2nc3ccccc3s2)cc1
19,134,CC(C)N(Cc1ccc(Br)cc1)C(=S)Nc1ccccc1
20,75 to 80,NCCN1CCOC(c2ccccc2)(c2ccccc2)CC1
21,219 to 222,CC(C)(O)CCc1cc(F)c2ncc(C(=O)NCc3ccc(Cl)cc3)c(O)c2c1
22,245 to 246,CN(Cc1ccc(F)cc1)C(=O)c1cnc2c3c(ccc2c1)C(=O)C(C(=O)O)C=N3 (centres undefined)
23,177 to 179,O=C(NNC(=S)NNC(=O)c1ccccc1)c1ccccc1
24,163 to 165,CN(C)C(=O)c1ccc(-c2ccc3nnn(Cc4ccc5ncccc5c4)c3n2)cc1F
25,80 to 81,OCc1ccccc1C(F)(F)C(F)(F)c1ccccc1
26,212 to 214,O=C(Cn1nc(-c2ccccc2O)nc1-c1ccccc1O)NC(CO)CO
27,113,CCCCS(=O)(=O)Nc1ccc(OCc2ccc3ccccc3n2)cc1
28,151 to 153,O=C(O)c1ccccc1C(=O)NCCCSc1ccncc1
29,83 to 87,CC(C)(C)c1ccc(S(=O)(=O)N2c3ccccc3C[C@H]2C(=O)NCc2ccc(N)cc2)cc1
